In general, MIC refers to the lowest concentration found to suppress growth.

Converted amounts (≈) assume the structure as drawn. Read-outs that look alike come from different tables or passages of the source.

The values that follow come from patent publication US10723741B1, “DNA polymerase IIIC inhibitors and use thereof” (Acurx Pharmaceuticals, LLC, priority 2018, dated 2020).

Holding throughout (assay type): cell-based
The test system of test [1] is Bacillus subtilis ATCC 6633. Description: Broth microdilution MIC, B. subtilis ATCC 6633. The note with it: ATCC6633, broth microdilution, 37° C., 20 hours, read-out: MIC B. subtilis ATCC 6633. Put shortly:
(§1)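 Two-fold dilutions from 64 to 0.0625 μg/ml final, 1% DMSO, were inoculated at ~5.0×10^5 cfu/ml in the strain's test medium and kept 20 h at 37 °C in ambient atmosphere. Colonies were grown on MHA, with S. pneumoniae on blood agar under 5% CO2.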
For orientation: Broth dilution looks for growth in wells or tubes with falling amounts of substance.

For test [2], the system named is Enterococcus faecium ATCC 700221 (VRE). Description: Broth microdilution MIC, E. faecium ATCC 700221 (VRE). Set-up: MIC E. faecium ATCC 700221 (VRE): unit: ug/mL. The note with it: broth microdilution, 37° C., 20 hours; for MIC: Enterococcus faecium, read-out: MIC E. faecium ATCC 700221 (VRE). In a few lines: as §1
Test [3] has as its system Staphylococcus aureus NRS384 (MRSA). Description: Broth microdilution MIC, S. aureus NRS384 (MRSA). Particulars: broth microdilution, 37° C., 20 hours; for MIC: Staphylococcus aureus, read-out: MIC NRS 384 (MRSA). Set-up: MIC NRS 384 (MRSA): unit not given here. In a few lines: as §1
In test [4] the test system is Enterococcus faecalis ATCC 29212. The test is described as follows: Broth microdilution MIC, E. faecalis ATCC 29212. Particulars: ATCC29212, broth microdilution, 37° C., 20 hours, read-out: MIC E. faecalis ATCC 29212. In a few lines:
as §1

Test [5] deals with Escherichia coli ATCC 25922. Description: Broth microdilution MIC, E. coli ATCC 25922 (MHIIB w & w/o 4 mM EDTA). Particulars: broth microdilution, 37° C., 20 hours; for MIC: Escherichia coli, ATCC25922, without EDTA, read-out: MIC E. coli ATCC 25922; for MIC E. coli ATCC 25922 + 4 mM EDTA: with 4 mM EDTA. Put shortly:
as §1

Test [6] deals with Streptococcus pneumoniae ATCC 49619. The test is described as follows: Broth microdilution MIC, S. pneumoniae ATCC 49619. The note with it: ATCC49619, broth microdilution, 37° C., 20 hours, read-out: MIC S. pneumoniae ATCC 49619. Put shortly:
as §1

The subject of test [7] is Staphylococcus aureus ATCC 29213 (MSSA). Description: Broth microdilution MIC, S. aureus ATCC 29213 (MSSA). Particulars: broth microdilution, 37° C., 20 hours, read-out: MIC S. aureus ATCC 29213 (MSSA). In a few lines: as §1

On to `CCOC(=O)CCCCn1ncc2nc(NCc3ccc(Cl)c(Cl)c3)[nH]c(=O)c21` [Compound 203, ethyl 5-(5-((3,4-dichlorobenzyl)amino)-7-oxo-6,7-dihydro-1H-pyrazolo[4,3-d]pyrimidin-1-yl)pentanoate], for which the MIC in test [1] is 0.5 µg/mL (≈ 1.14 µM); in test [2] it was 2 µg/mL (≈ 4.56 µM); in test [3] it was 2 µg/mL (≈ 4.56 µM); in test [4], > 64 µg/mL; in test [5], > 64 µg/mL; in test [6], 8 µg/mL (≈ 18.3 µM). In addition, in test [7], the MIC came to 2 µg/mL (≈ 4.56 µM). Besides, the “MIC E. coli ATCC 25922 + 4 mM EDTA” value in test [5] was >64 µg/mL.

For the compound `Cl.O=c1[nH]c(NCc2ccc(Cl)c(Cl)c2)nc2cnn(Cc3ccccn3)c12` [Compound 109, 5-((3,4-Dichlorobenzyl)amino)-1-(pyridin-2-ylmethyl)-1H-pyrazolo[4,3-d]pyrimidin-7(6H)-one hydrochloride], the MIC in test [1] was 2 µg/mL; in test [2], 4 µg/mL; in test [3], 64 µg/mL; in test [4] it was > 64 µg/mL; in test [5], > 64 µg/mL; in test [6], 4 µg/mL. The MIC in test [7] is > 64 µg/mL. Further, the “MIC E. coli ATCC 25922 + 4 mM EDTA” value in test [5] was >64 µg/mL.

On to `CNC(=O)c1nn(C)c2c(=O)[nH]c(NCc3ccc(Cl)c(Cl)c3)nc12` [Compound 42, 5-((3,4-dichlorobenzyl)amino)-N, 1-dimethyl-7-oxo-6,7-dihydro-1H-pyrazolo[4,3-d]pyrimidine-3-carboxamide], for which the MIC in test [1], in test [2], in test [3], in test [4], in test [5] and in test [6] was > 64 µg/mL throughout. Further, the MIC in test [7] is > 64 µg/mL. Further, the “MIC E. coli ATCC 25922 + 4 mM EDTA” value in test [5] is >64 µg/mL.

Take `O=c1[nH]c(NCc2ccc(Cl)c(Cl)c2)nc2cnn(CCS(=O)(=O)CCO)c12` [Compound 164, 5-((3,4-dichlorobenzyl)amino)-1-(2-((2-hydroxyethyl)sulfonyl)ethyl)-1H-pyrazolo[4,3-d]pyrimidin-7(6H)-one]: the MIC in test [1] was 16 µg/mL (≈ 35.8 µM); in test [2] it was 16 µg/mL (≈ 35.8 µM); in test [3], 64 µg/mL (≈ 143 µM); in test [4], 32 µg/mL (≈ 71.7 µM); in test [5], > 64 µg/mL; in test [6], 4 µg/mL (≈ 8.96 µM). The MIC in test [7] came out at 32 µg/mL (≈ 71.7 µM). For the same compound, in test [5], the “MIC E. coli ATCC 25922 + 4 mM EDTA” value is >64 µg/mL.

In the case of `Cn1ncc2nc(NCc3cc[nH]n3)[nH]c(=O)c21` [Compound 16, 5-(((1H-pyrazol-3-yl)methyl)amino)-1-methyl-1H-pyrazolo[4,3-d]pyrimidin-7(6H)-one], the MIC in test [1], in test [2], in test [3], in test [4], in test [5] and in test [6] was > 64 µg/mL in each case. In test [7], the MIC was > 64 µg/mL. Besides, the “MIC E. coli ATCC 25922 + 4 mM EDTA” value in test [5] was >64 µg/mL.

As to `Cl.O=c1[nH]c(NCc2ccc(Cl)c(Cl)c2)nc2cnn(CCOCCN3CCOCC3)c12` [Compound 160, 5-((3,4-dichlorobenzyl)amino)-1-(2-(2-morpholinoethoxy)ethyl)-1H-pyrazolo[4,3-d]pyrimidin-7(6H)-one hydrochloride], the MIC was 4 µg/mL in test [1]; 8 µg/mL in test [2]; 16 µg/mL in test [3]; 16 µg/mL in test [4]; > 64 µg/mL in test [5]; 4 µg/mL in test [6]. Also, in test [7], the MIC came to 16 µg/mL. In addition, the “MIC E. coli ATCC 25922 + 4 mM EDTA” value in test [5] stood at 64 µg/mL.

For the compound `Cl.O=C(O)C1CC(n2ncc3nc(NCc4ccc(Cl)c(Cl)c4)[nH]c(=O)c32)CN1` (stereo not drawn) [Compound 151, 4-(5-((3,4-dichlorobenzyl)amino)-7-oxo-6,7-dihydro-1H-pyrazolo[4,3-d]pyrimidin-1-yl)pyrrolidine-2-carboxylic acid hydrochloride], the MIC is > 64 µg/mL in test [1]; > 64 µg/mL in test [2]; > 64 µg/mL in test [3]; > 64 µg/mL in test [4]; > 64 µg/mL in test [5]; 64 µg/mL in test [6]. Besides, the minimum inhibitory concentration (MIC) in test [7] is > 64 µg/mL. In test [5], the “MIC E. coli ATCC 25922 + 4 mM EDTA” value was >64 µg/mL.

As for `Cn1ncc2nc(NCCc3ccc(Cl)c(Cl)c3)[nH]c(=O)c21` [Compound 8, 5-((3,4-Dichlorophenethyl)amino)-1-methyl-1H-pyrazolo[4,3-d]pyrimidin-7(6H)-one], the MIC in test [1], in test [2], in test [3], in test [4], in test [5] and in test [6] was > 64 µg/mL each time. For the same compound, the MIC in test [7] was > 64 µg/mL. Also, the “MIC E. coli ATCC 25922 + 4 mM EDTA” value in test [5] was >64 µg/mL.

With `O=C(Cn1ncc2nc(NCc3ccc(Cl)c(Cl)c3)[nH]c(=O)c21)N1CCOCC1` [Compound 158, 5-((3,4-dichlorobenzyl)amino)-1-(2-morpholino-2-oxoethyl)-1H-pyrazolo[4,3-d]pyrimidin-7(6H)-one], the MIC in test [1] was 8 µg/mL (≈ 18.3 µM); in test [2], 8 µg/mL (≈ 18.3 µM); in test [3], 32 µg/mL (≈ 73.2 µM); in test [4], 16 µg/mL (≈ 36.6 µM); in test [5], > 64 µg/mL; in test [6], 4 µg/mL (≈ 9.15 µM). In addition, in test [7], the MIC amounted to 16 µg/mL (≈ 36.6 µM). In addition, in test [5], the “MIC E. coli ATCC 25922 + 4 mM EDTA” value is >64 µg/mL.

Consider `Cl.O=C(c1cnc[nH]1)N1CCC(n2ncc3nc(NCc4ccc(Cl)c(Cl)c4)[nH]c(=O)c32)CC1` [Compound 270, 1-(1-(1H-imidazole-5-carbonyl)piperidin-4-yl)-5-((3,4-dichlorobenzyl)amino)-1H-pyrazolo[4,3-d]pyrimidin-7(6H)-one hydrochloride], for which the MIC in test [1] was 4 µg/mL; in test [2] it was 4 µg/mL; in test [3] it was 16 µg/mL; in test [4], 8 µg/mL; in test [5] it was > 64 µg/mL; in test [6], 8 µg/mL. In addition, the MIC in test [7] came to 16 µg/mL. Besides, the “MIC E. coli ATCC 25922 + 4 mM EDTA” value in test [5] was >64 µg/mL.

For `O=c1[nH]c(NCc2ccc(Cl)c(Cl)c2)nc2cnn(Cc3ncccn3)c12` [Compound 114, 5-((3,4-Dichlorobenzyl)amino)-1-(pyrimidin-2-ylmethyl)-1H-pyrazolo[4,3-d]pyrimidin-7(6H)-one], the minimum inhibitory concentration (MIC) in test [1] was 2 µg/mL (≈ 4.97 µM); in test [4] it was 16 µg/mL (≈ 39.8 µM); in test [5], > 64 µg/mL; in test [6], 4 µg/mL (≈ 9.94 µM); in test [7], 8 µg/mL (≈ 19.9 µM). Also, the “MIC E. faecium ATCC 700221 (VRE)” value in test [2] is 4/4. For the same compound, in test [3], the “MIC NRS 384 (MRSA)” value is 4/4. Further, the “MIC E. coli ATCC 25922 + 4 mM EDTA” value in test [5] was 32 µg/mL.

Take `O=c1[nH]c(NCc2ccc(F)c(F)c2)nc2c(F)nn(Cc3cocn3)c12` [Compound 316, 5-((3,4-Difluorobenzyl)amino)-3-fluoro-1-(oxazol-4-ylmethyl)-1H-pyrazolo[4,3-d]pyrimidin-7(6H)-one]: the MIC in test [1] was 2 µg/mL (≈ 5.31 µM); in test [2], 4 µg/mL (≈ 10.6 µM); in test [3] (S. aureus NRS 384) it was 2 µg/mL (≈ 5.31 µM); in test [4], 8 µg/mL (≈ 21.3 µM); in test [5], > 64 µg/mL; in test [6], 2 µg/mL (≈ 5.31 µM). Moreover, in test [7], the MIC worked out at 4 µg/mL (≈ 10.6 µM). The “MIC E. coli ATCC 25922 + 4 mM EDTA” value in test [5] is >64 µg/mL.

For `Cn1ncc2nc(NCc3ccc(Cl)cc3)[nH]c(=O)c21` [Compound 25, 5-((4-chlorobenzyl)amino)-1-methyl-1H-pyrazolo[4,3-d]pyrimidin-7(6H)-one], the MIC in test [1] is 8 µg/mL (≈ 27.6 µM); in test [2], 16 µg/mL (≈ 55.2 µM); in test [3] it was 8 µg/mL (≈ 27.6 µM); in test [4], 16 µg/mL (≈ 55.2 µM); in test [5] it was > 64 µg/mL; in test [6] it was 4 µg/mL (≈ 13.8 µM). For the same compound, the MIC in test [7] was determined as 8 µg/mL (≈ 27.6 µM). Also, the “MIC E. coli ATCC 25922 + 4 mM EDTA” value in test [5] is 64 µg/mL.

For `O=c1[nH]c(NCc2ccc(Cl)c(Cl)c2)nc2c(Cl)nn(CCOCCO)c12` [Compound 303, 3-Chloro-5-[(3,4-dichlorophenyl)methylamino]-1-[2-(2-hydroxyethoxy)ethyl]-6H-pyrazolo[4,3-d]pyrimidin-7-one], the MIC in test [1] is 0.5 µg/mL (≈ 1.16 µM); in test [2], 1 µg/mL (≈ 2.31 µM); in test [3] (S. aureus NRS 384), 2 µg/mL (≈ 4.62 µM); in test [4], 2 µg/mL (≈ 4.62 µM); in test [5], > 64 µg/mL; in test [6], 2 µg/mL (≈ 4.62 µM). In test [7], the MIC came to 2 µg/mL (≈ 4.62 µM). Moreover, the “MIC E. coli ATCC 25922 + 4 mM EDTA” value in test [5] is >64 µg/mL.

As for `CC(C)OC(=O)CCCn1ncc2nc(NCc3ccc(Cl)c(Cl)c3)[nH]c(=O)c21` [Compound 206, isopropyl 4-(5-((3,4-dichlorobenzyl)amino)-7-oxo-6,7-dihydro-1H-pyrazolo[4,3-d]pyrimidin-1-yl)butanoate], the MIC in test [1] was 1 µg/mL (≈ 2.28 µM); in test [2] it was 4 µg/mL (≈ 9.13 µM); in test [3] it was > 64 µg/mL; in test [4] it was > 64 µg/mL; in test [5], > 64 µg/mL; in test [6] it was 16 µg/mL (≈ 36.5 µM). Also, the MIC in test [7] is > 64 µg/mL. Moreover, in test [5], the “MIC E. coli ATCC 25922 + 4 mM EDTA” value was >64 µg/mL.
